Results reported in US7829591B2, “Flavanone compound and uses thereof” (Pokka Corporation, priority 2003, dated 2010).

Assays:
[1] = DPPH radical scavenging activity test; type: biochemical; settings: 25 μM sample solution in ethanol, 1 h in dark, absorbance 517 nm; average ± SD of three runs
Experimental: DPPH (α,α-diphenyl-β-picrylhydradil) is a purple stable radical having a maximum absorption at 517 nm, which is converted into colorless hydrazine by gaining hydrogen. This color reaction was utilized so as to determine the radical scavenging activity of each of Compounds 1 to 4 and the like. That is, each of Compounds 1 to 4 was dissolved in ethanol to prepare 3 ml of a sample solution having a concentration of 25 μM. Thereafter, to each of the resultant sample solutions, 0.75 ml of a 0.5 mM DPPH solution (whose solvent was ethanol) was added and stirred, and reacted in a dark place for one hour, followed by the determination of an absorbance at 517 nm. Furthermore, in place of Compounds 1 to 4, BHT (butylated hydroxytoluene), α-tocopherol or eriodictyol was used so as to determine an absorbance according to a similar procedure to the above. Besides, instead of the above sample solutions, ethanol was used as a control so as to determine an absorbance according to a similar procedure to the above. Then the radical scavenging activity (%) of each of the materials was calculated using the following calculation formula 1. Incidentally, each of values shown in Table 1 is the average value and standard deviation of values obtained from three runs. (Radical Scavenging Activity)=[{(Absorbance of Control)−(Absorbance of Sample Solution)}/(Absorbance of Control)]×100 Calculation Formula 1

[2] = test system: breast cancer cells (MCF-7); test: Breast cancer cell proliferation-inhibition test; type: cell-based; settings: 0.1 nM estradiol, Control 1 at 0 day = 1
Experimental: When breast cancer cells (MCF-7) are cultured, if estradiol (or 17β-estradiol) having a cell-proliferation accelerating action, is added thereto, the proliferation of breast cancer cells can be simply promoted in a short period. This phenomenon was utilized so as to examine the effect of each of Compounds 1 to 4 and the like on the proliferation inhibition of breast cancer cells. That is, first of all, each of Compounds 1 to 4 was diluted with dimethyl sulfoxide to prepare a sample solution. Thereafter, 2×10^3 of MCF-7 were inoculated in each well of a 96-well plate, and estradiol and the sample solution were added thereto after 4 hours. Estradiol was added to each compartment so that the final concentration of estradiol can be 0.1 nM, and the final concentration of the sample solution can be 0.2 μM, 2 μM, or 20 μM. After incubation for a predetermined period of time (three or five days), each of the media was replaced with a new medium, and an enzyme solution (Cell counting Kit-8: Wako) was added to the new medium in an amount of 10% of the new medium. After maintained the medium in an incubator at a temperature of 37° C. for two hours, the absorbance of the medium was determined at a wavelength of 450 nm (a reference wave length of 630 nm) by means of a spectrophotometer so as to quantify the number of living cells in each compartment.
As for the compartment whose incubation period is predetermined to be five days, on the third day of the incubation, the medium was replaced with a new medium, and thereafter, estradiol and a sample solution were added to the new medium, and the incubation was continued till fifth day. As for the compartment whose incubation period is predetermined to be 0 day, at four hours after the cells were inoculated, an enzyme solution was added to the medium. The medium was maintained in an incubator at a temperature of 37° C. for two hours, followed by determining the absorbance.
Instead of Compounds 1 to 4, eriodictyol was used to determine the absorbance according to a similar procedure to the above-mentioned one, and thus the number of living cells in each compartment was quantified. Furthermore, Control 1 to which neither estradiol nor a sample had been added was used to determine the absorbance according to a similar procedure to the above-mentioned one, and thus the number of living cells in each compartment was quantified, while Control 2 to which no sample had been added was used to determine the absorbance according to a similar procedure to the above-mentioned one, and thus the number of living cells in each compartment was quantified.
When it is assumed that the number of living cells of Control 1 as quantified after a zero-day incubation period is 1, the relative value of living cells as quantified in each of the runs mentioned above is shown in Table 2. Incidentally, each of values shown in Table 2 is the average value and standard deviation of values obtained from eight wells.

Bacillus cereus (B. ce) = test: Antimicrobial activity test with Compounds 1 to 4; type: cell-based; settings: for effect on growth and development of spore forming bacteria, B. ce (in words): 5-50 ppm
Experimental: (§1) That is, first of all, each of Compounds 1 to 4 was dissolved in 70% ethanol, and thereafter, standard agar media were prepared wherein the concentration of each of Compounds 1 to 4 was adjusted to be 0 ppm, 5 ppm, 10 ppm, 15 ppm, 20 ppm, or 50 ppm. Subsequently, these standard agar media were subjected to autoclave sterilization so as to prepare evaluation media, and each of the biological indicators was inoculated in each of these evaluation media. After the incubation of each of the bacteria, the number of the bacteria per a petri dish (CFU/petri dish) was determined.

E. coli = test: Antimicrobial activity test with Compounds 1 to 4; type: cell-based; settings: for effect on growth and development of E. coli (in words): 5-50 ppm
Experimental: as §1

[3] = test system: Salmonella enteritidis (S. en; NBRC3313); test: Antimicrobial activity test with Compounds 1 to 4; type: cell-based; settings: for effect on growth and development of S. en (in words): 5-50 ppm
Experimental: as §1

[4] = test system: Staphylococcus aureus (Sta.); test: Antimicrobial activity test with Compounds 1 to 4; type: cell-based; settings: for effect on growth and development of Gram-positive bacteria, Sta. (in words): 5-50 ppm
Experimental: as §1

[5] = 0.2 μM sample, after 3-days incubation
[6] = 0.2 μM sample, after 5-days incubation
[7] = 0.2 μM sample, on 0-day incubation, mean ± SD of eight wells
[8] = 2 μM sample, after 3-days incubation
[9] = 2 μM sample, after 5-days incubation
[10] = 2 μM sample, on 0-day incubation
[11] = 20 μM sample, after 3-days incubation
[12] = 20 μM sample, after 5-days incubation
[13] = 20 μM sample, on 0-day incubation
[14] = 5 ppm in standard agar medium, 0 ppm: 13 (Table 3), 183 (Table 4)
[15] = 5 ppm in standard agar medium, 0 ppm: >3000 (Table 3), 5 (Table 4)
[16] = 5 ppm in standard agar medium, 0 ppm: >3000 (Table 3), 221 (Table 4)
[17] = 5 ppm in standard agar medium, 0 ppm: 470 (Table 3), 202 (Table 4)

CC(C)=CCC/C(C)=C/Cc1c([C@@H]2CC(=O)c3c(O)cc(O)cc3O2)ccc(O)c1O [Compound 1, 5,7,3′,4′-tetrahydroxy-2′-C-geranylflavanone]
Radical Scavenging Activity (%) from DPPH Radical Scavenging Activity Test [1]: 55.35 ± 0.43% | Relative Value of Living Cells [2, 5]: 2.86 ± 0.14 | Relative Value of Living Cells [2, 6]: 7.26 ± 0.48 | Relative Value of Living Cells [2, 7]: 0.98 ± 0.04 | Relative Value of Living Cells [2, 8]: 2.58 ± 0.11 | Relative Value of Living Cells [2, 9]: 6.01 ± 0.25 | Relative Value of Living Cells [2, 10]: 0.99 ± 0.05 | Relative Value of Living Cells [2, 11]: 2.22 ± 0.19 | Relative Value of Living Cells [2, 12]: 4.17 ± 0.50 | Relative Value of Living Cells [2, 13]: 1.01 ± 0.05 | effect on growth and development of spore forming bacteria, B. ce (in words) (Bacillus cereus (B. ce)): more strongly the growth and development of each of Gram-5 positive bacteria and spore forming bacteria is inhibited | Number of Bacteria, B. ce (Bacillus cereus (B. ce); [14]): 12 CFU/petri dish | Number of Bacteria, B. ce (Bacillus cereus (B. ce); 10 ppm in standard agar medium): 0 CFU/petri dish | Number of Bacteria, B. ce (Bacillus cereus (B. ce); 15 ppm in standard agar medium): 0 CFU/petri dish | Number of Bacteria, B. ce (Bacillus cereus (B. ce); 20 ppm in standard agar medium): 0 CFU/petri dish | Number of Bacteria, B. ce (Bacillus cereus (B. ce); 50 ppm in standard agar medium): 0 CFU/petri dish | effect on growth and development of E. coli (in words) (E. coli): little effect upon the growth and development | Number of Bacteria, E. coli (E. coli; [15]): >3000 CFU/petri dish | Number of Bacteria, E. coli (E. coli; 10 ppm in standard agar medium): >3000 CFU/petri dish | Number of Bacteria, E. coli (E. coli; 15 ppm in standard agar medium): >3000 CFU/petri dish | Number of Bacteria, E. coli (E. coli; 20 ppm in standard agar medium): >3000 CFU/petri dish | Number of Bacteria, E. coli (E. coli; 50 ppm in standard agar medium): >3000 CFU/petri dish | effect on growth and development of S. en (in words) [3]: little effect upon the growth and development | Number of Bacteria, S. en [3, 16]: >3000 CFU/petri dish | Number of Bacteria, S. en ([3]; 10 ppm in standard agar medium): >3000 CFU/petri dish | Number of Bacteria, S. en ([3]; 15 ppm in standard agar medium): >3000 CFU/petri dish | Number of Bacteria, S. en ([3]; 20 ppm in standard agar medium): >3000 CFU/petri dish | Number of Bacteria, S. en ([3]; 50 ppm in standard agar medium): >3000 CFU/petri dish | effect on growth and development of Gram-positive bacteria, Sta. (in words) [4]: more strongly the growth and development of each of Gram-5 positive bacteria and spore forming bacteria is inhibited | Number of Bacteria, Sta. [4, 17]: 344 CFU/petri dish | Number of Bacteria, Sta. ([4]; 10 ppm in standard agar medium): 36 CFU/petri dish | Number of Bacteria, Sta. ([4]; 15 ppm in standard agar medium): 0 CFU/petri dish | Number of Bacteria, Sta. ([4]; 20 ppm in standard agar medium): 0 CFU/petri dish | Number of Bacteria, Sta. ([4]; 50 ppm in standard agar medium): 0 CFU/petri dish

CC(C)=CCC/C(C)=C/Cc1cc([C@@H]2CC(=O)c3c(O)cc(O)cc3O2)cc(O)c1O [Compound 2, 5,7,3′,4′-tetrahydroxy-5′-C-geranylflavanone]
Radical Scavenging Activity (%) from DPPH Radical Scavenging Activity Test [1]: 49.86 ± 0.96% | Relative Value of Living Cells [2, 5]: 2.97 ± 0.37 | Relative Value of Living Cells [2, 6]: 6.83 ± 0.58 | Relative Value of Living Cells [2, 7]: 0.95 ± 0.04 | Relative Value of Living Cells [2, 8]: 2.68 ± 0.19 | Relative Value of Living Cells [2, 9]: 6.59 ± 0.50 | Relative Value of Living Cells [2, 10]: 0.99 ± 0.04 | Relative Value of Living Cells [2, 11]: 2.59 ± 0.21 | Relative Value of Living Cells [2, 12]: 5.59 ± 1.01 | Relative Value of Living Cells [2, 13]: 1.00 ± 0.07 | effect on growth and development of spore forming bacteria, B. ce (in words) (Bacillus cereus (B. ce)): more strongly the growth and development of each of Gram-5 positive bacteria and spore forming bacteria is inhibited | Number of Bacteria, B. ce (Bacillus cereus (B. ce); [14]): 17 CFU/petri dish | Number of Bacteria, B. ce (Bacillus cereus (B. ce); 10 ppm in standard agar medium): 0 CFU/petri dish | Number of Bacteria, B. ce (Bacillus cereus (B. ce); 15 ppm in standard agar medium): 0 CFU/petri dish | Number of Bacteria, B. ce (Bacillus cereus (B. ce); 20 ppm in standard agar medium): 0 CFU/petri dish | Number of Bacteria, B. ce (Bacillus cereus (B. ce); 50 ppm in standard agar medium): 0 CFU/petri dish | effect on growth and development of E. coli (in words) (E. coli): little effect upon the growth and development | Number of Bacteria, E. coli (E. coli; [15]): >3000 CFU/petri dish | Number of Bacteria, E. coli (E. coli; 10 ppm in standard agar medium): >3000 CFU/petri dish | Number of Bacteria, E. coli (E. coli; 15 ppm in standard agar medium): >3000 CFU/petri dish | Number of Bacteria, E. coli (E. coli; 20 ppm in standard agar medium): >3000 CFU/petri dish | Number of Bacteria, E. coli (E. coli; 50 ppm in standard agar medium): >3000 CFU/petri dish | effect on growth and development of S. en (in words) [3]: little effect upon the growth and development | Number of Bacteria, S. en [3, 16]: >3000 CFU/petri dish | Number of Bacteria, S. en ([3]; 10 ppm in standard agar medium): >3000 CFU/petri dish | Number of Bacteria, S. en ([3]; 15 ppm in standard agar medium): >3000 CFU/petri dish | Number of Bacteria, S. en ([3]; 20 ppm in standard agar medium): >3000 CFU/petri dish | Number of Bacteria, S. en ([3]; 50 ppm in standard agar medium): >3000 CFU/petri dish | effect on growth and development of Gram-positive bacteria, Sta. (in words) [4]: more strongly the growth and development of each of Gram-5 positive bacteria and spore forming bacteria is inhibited | Number of Bacteria, Sta. [4, 17]: 395 CFU/petri dish | Number of Bacteria, Sta. ([4]; 10 ppm in standard agar medium): 108 CFU/petri dish | Number of Bacteria, Sta. ([4]; 15 ppm in standard agar medium): 22 CFU/petri dish | Number of Bacteria, Sta. ([4]; 20 ppm in standard agar medium): 0 CFU/petri dish | Number of Bacteria, Sta. ([4]; 50 ppm in standard agar medium): 0 CFU/petri dish
